“Also recorded” adds a separate entry of the source. Each block holds one molecule with its values, some of them ahead of it. Where no end group is shown, it is not given here.
Assays:
Rhopr-SKR-1 [1] = assay: Second messenger pathway assay (PLC inhibitor U73122 or EGTA), Rhopr-SKR-1 in HEK293/CNG cells; assay type: cell-based, Rhodnius prolixus; conditions: for luminescence response of control agents: cells expressing Rhopr-SKR-1, confirms functional CNG channels (Fig. S4); for EC50: 3 replicates, read-out: EC50, luminescence response; for luminescence response: with 10 μM U73122 (10 minutes incubation)
Method: (§1) To test whether cAMP and/or Ca^2+ are the second messengers for Rhopr-SKR-1 and Rhopr-SKR-2, HEK293/CNG cells were transfected with each receptor, as previously mentioned, then split into cells that were suspended in calcium-free DMEM with the extracellular calcium chelator EGTA (10 μM) or cells treated with the PLC inhibitor U73122 (10 μM) (Sigma Aldrich, Oakville, ON, Canada). […] HEK293/CNG cells with receptors that work via the Ca^2+ pathway would be unable to evoke luminescence in the presence of U73122. The modified CNG channel in HEK293/CNG causes extracellular Ca^2+ to flow into the cell upon an increase in cytoplasmic cAMP levels. Receptors that solely work through the cAMP pathway would be unable to produce a response in calcium-free media with EGTA. Moreover, receptors that work via both Ca^2+ and cAMP would elicit a response in the presence of either U73122 or EGTA in calcium-free media.
(§2) HEK293/CNG cells were used via the same protocol as previously stated. Luminescence was measured in 5-second intervals for a total of 30 seconds. In the first set of experiments, the transfected cells were incubated in 10 μM of U73122 for 10 minutes prior to measuring luminescence in response to the addition of sulfated Rhopr-SK-1 or Rhopr-SK-2. To confirm the viability of the utilized cells, media in 1.5% Triton X-100 served as a positive control. In the second set of experiments, cells were suspended in calcium-free DMEM (Thermo Fisher Scientific, Waltham, MA, USA) with 10 μM of the extracellular calcium chelator EGTA. Here, luminescence was measured in response to sulfated Rhopr-SK-1 or Rhopr-SK-2 in calcium-free DMEM in the presence of EGTA. A batch of cells that was also pre-incubated in calcium-free DMEM with EGTA were then washed, incubated in regular DMEM, and then tested in response to sulfated Rhopr-SK-1 and […]. Forskolin, which is a stimulator of adenylate cyclase, and the cAMP analog dibutyryl cAMP (dbcAMP) were utilized as controls to confirm the expression of functional CNG channels in the HEK293/CNG cells. ATP served as a positive control. GraphPad Prism version 8.00 (https://www.graphpad.com) was used to analyze the bioluminescence results.

Rhopr-SKR-2 [2] = assay: Second messenger pathway assay (PLC inhibitor U73122 or EGTA), Rhopr-SKR-2 in HEK293/CNG cells; assay type: cell-based, Rhodnius prolixus; conditions: for EC50: 3 replicates, read-out: EC50, luminescence response; for luminescence response: with 10 μM U73122 (10 minutes incubation)
Method: as §1, §2

PLC pathway = conditions: HEK293/CNG cell line; cited from earlier work
Method: To test whether cAMP and/or Ca^2+ are the second messengers for Rhopr-SKR-1 and Rhopr-SKR-2, HEK293/CNG cells were transfected with each receptor, as previously mentioned, then split into cells that were suspended in calcium-free DMEM with the extracellular calcium chelator EGTA (10 μM) or cells treated with the PLC inhibitor U73122 (10 μM) (Sigma Aldrich, Oakville, ON, Canada). […] HEK293/CNG cells with receptors that work via the Ca^2+ pathway would be unable to evoke luminescence in the pre ...

Rhopr-SKR-1 [3] = assay: Functional receptor assay (aequorin bioluminescence), Rhopr-SKR-1 transiently expressed in HEK293/CNG cells; assay type: cell-based, Rhodnius prolixus; conditions: for luminescence response / activation (in words) / EC50: HEK293/CNG, first 5-second interval, 3 replicates; for EC50: aequorin luminescence, coelenterazine h 5 μM, read-out: EC50, luminescence response
Method: (§3) An aequorin luminescence assay was utilized in order to measure Ca^2+ signaling in HEK293/CNG cells stably expressing a modified cyclic nucleotide-gated (CNG) channel. The cells were grown in Dulbecco’s Modified Eagle Medium Nutrient Mixture F12-Ham (DMEM/F-12) (Thermo Fisher Scientific, Waltham, MA, USA), with 1% penicillin/streptomycin, 10% fetal bovine serum (FBS), and 100 μg/mL G418 (Geneticin). The HEK293/CNG cells were consistently grown in vented T75 flasks and inclubated at 37 °C in 5% CO2. After reaching approximately 95% confluency, the mammalian cells were transiently co-transfected with the pIRES2-ZsGreen1 expression vector (containing Rhopr-SKR-1 or Rhopr-SKR-2) and the cytoplasmic luminescent reporter aequorin via X-tremeGENE^TM HP DNA Transfection Reagent (Roche Applied Science, Penzberg, Germany). Transfections were performed at a 2:1 ratio for the transfection reagent to the expression vectors. Cells transiently transfected with empty pIRES2-ZsGreen1 expression vectors served as a negative control. The cells were then incubated at 37 °C in 5% CO2 for 72 hours prior to performing the bioluminescence assay.
(§4) The bioluminescence assay was performed as previously described. At 72 hours post-transfection, the HEK293/CNG cells were harvested from the T75 flasks using a PBS with ethylenediaminetetraacetic acid (EDTA) solution then suspended in a bovine serum albumin (BSA) media (DMEM/F-12 with 1% penicillin/streptomycin and 1% BSA). Prior to the functional assay, the cells were incubated in coelenterazine h (Promega, Madison, WI, USA) to a 5 μM final concentration, and then incubated for 4 hours whilst stirring in the dark. The cells were then diluted 8-fold via BSA media. Rhopr-SK-1 and Rhopr-SK-2 (as well as nonsulfated Rhopr-SK-1) were prepared in BSA media then plated in duplicates on 96-well plates, with 50 μL of the cells then automatically injected into each of these wells via a Perkin Elmer Wallac 1420 Victor2 plate reader (Perkin Elmer, San Diego, CA, USA). The reader was used to measure luminescence response in consecutive five-second intervals (15 seconds in total). An extended Rhopr-FMRFamide (GNDNFMRFamide), tachykinin (Rhopr-TK-2), and Rhopr-Kinin-2 were used as controls to test for specificity. ATP was used as a positive control. HEK293/CNG cells transfected with empty pIRES2-ZsGreen1 vectors served as negative controls.

Rhopr-SKR-2 [4] = assay: Functional receptor assay (aequorin bioluminescence), Rhopr-SKR-2 transiently expressed in HEK293/CNG cells; assay type: cell-based, Rhodnius prolixus; conditions: for luminescence response / activation (in words) / EC50: HEK293/CNG, first 5-second interval, 3 replicates; for EC50: aequorin luminescence, coelenterazine h 5 μM, read-out: EC50, luminescence response
Method: as §3, §4

HEK293/CNG cells = assay: Negative control: HEK293/CNG cells transfected with empty pIRES2-ZsGreen1 plasmids; assay type: cell-based, human; conditions: empty pIRES2-ZsGreen1 (not shown)
Method: as §3, with “Cells transiently transfected with empty pIRES2-ZsGreen1 expression vectors served as a negative control. The cells were then incubated at 37 °C in 5% CO2 for 72 hours prior to performing the bioluminescence assay.” left out
The bioluminescence assay was performed as previously described. […] Rhopr-SK-1 and Rhopr-SK-2 (as well as nonsulfated Rhopr-SK-1) were prepared in BSA media then plated in duplicates on 96-well plates, with 50 μL of the cells then automatically injected into each of these wells via a Perkin Elmer Wallac 1420 Victor2 plate reader (Perkin Elmer, San Diego, CA, USA). The reader was used to measure luminescence response in consecutive five-second intervals (15 seconds in total). […]

R. prolixus = conditions: peptide injection; cited from earlier work
Excerpt: Silencing of SKs via RNAi has been linked to stimulation in the intake of food in G. bimaculatus[28] and T. castaneum. Additionally, RNAi-induced silencing of each of the transcripts for the two SKRs in T. castaneum led an increase of food intake by approximately 20% for SKR1[25] and 50% for SKR2[29]. […] In the present study, the transcript coding for Rhopr-SK-1 and Rhopr-SK-2 as well as the ...

[5] = Rhopr-SKR-1, absence of EGTA, media containing calcium
[6] = Rhopr-SKR-1, absence of U73122, media containing calcium
[7] = Rhopr-SKR-1, presence of EGTA (10 μM), calcium-free DMEM
[8] = absence of EGTA, media containing calcium
[9] = absence of U73122, media containing calcium
[10] = presence of EGTA (10 μM), calcium-free DMEM

Molecule: Nc1ncnc2c1ncn2[C@@H]1O[C@H](COP(=O)(O)OP(=O)(O)OP(=O)(O)O)[C@@H](O)[C@H]1O [ATP, reference compound]
bioluminescent response of ATP, positive control (Rhopr-SKR-1 [1]; Rhopr-SKR-1, all conditions (not shown)): elicited the expected positive bioluminescent response | bioluminescent response of ATP, positive control (Rhopr-SKR-2 [2]; all conditions (not shown)): elicited the expected positive bioluminescent response

Molecule: O=C(O)CN(CCOCCOCCN(CC(=O)O)CC(=O)O)CC(=O)O [EGTA, ethylene glycol-bis(β-aminoethyl ether)-N,N,N′,N′-tetraacetic acid, reference compound]
effect of EGTA on luminescence induced by Rhopr-SK-1 and Rhopr-SK-2 (Rhopr-SKR-1 [1]; Rhopr-SKR-1, calcium-free media containing EGTA (10 μM)): does not abolish the luminescence induced by Rhopr-SK-1 and Rhopr-SK-2 | effect of EGTA on luminescence induced by Rhopr-SK-1 and Rhopr-SK-2 (Rhopr-SKR-2 [2]; calcium-free media containing EGTA (10 μM)): does not abolish the luminescence induced by Rhopr-SK-1 and Rhopr-SK-2

Molecule: COc1ccc2c(c1)CC[C@@H]1[C@@H]2CC[C@]2(C)[C@@H](NCCCCCCN3C(=O)C=CC3=O)CC[C@@H]12 [U73122, reference compound]
effect of U73122 on luminescence response to Rhopr-SK-1 and Rhopr-SK-2 (Rhopr-SKR-1 [1]; Rhopr-SKR-1, 10 μM): abolished the luminescence response to Rhopr-SK-1 and Rhopr-SK-2 | effect of U73122 on luminescence response to Rhopr-SK-1 and Rhopr-SK-2 (Rhopr-SKR-2 [2]; 10 μM): abolished the luminescence response to Rhopr-SK-1 and Rhopr-SK-2 | inhibition of PLC pathway (PLC pathway): successfully inhibit the PLC pathway

Molecule: CCCC(=O)Nc1ncnc2c1ncn2[C@@H]1O[C@@H]2COP(=O)(O)O[C@H]2[C@H]1OC(=O)CCC [dibutyryl-cAMP, reference compound]
luminescence response of control agents (Rhopr-SKR-1 [1]): elicited luminescence responses

Molecule: C=C[C@@]1(C)CC(=O)[C@]2(O)[C@@]3(C)[C@@H](O)CCC(C)(C)[C@@H]3[C@H](O)[C@H](OC(C)=O)[C@@]2(C)O1 [forskolin, reference compound]
luminescence response of control agents (Rhopr-SKR-1 [1]): elicited luminescence responses

Molecule: AKFSSWG-NH2 [Rhopr-Kinin-2, R. prolixus kinin, control for specificity, reference compound]
luminescence response / activation (in words) (Rhopr-SKR-1 [3]): little to no response | luminescence response / activation (in words) (Rhopr-SKR-2 [4]): little to no response

Molecule: APSTMGFQGVR-NH2 [Rhopr-TK-2, R. prolixus tachykinin, control for specificity, reference compound]
luminescence response / activation (in words) (Rhopr-SKR-1 [3]): little to no response | luminescence response / activation (in words) (Rhopr-SKR-2 [4]): little to no response

EC50 (Rhopr-SKR-1 [3]): 8.69 nM | EC50 (Rhopr-SKR-2 [4]): 0.101 nM | EC50 (Rhopr-SKR-1 [1]; [5]): 6.86 nM | EC50 (Rhopr-SKR-1 [1]; [6]): 13.3 nM | EC50 (Rhopr-SKR-1 [1]; [7]): 30.2 nM | EC50 (Rhopr-SKR-2 [2]; [8]): 0.134 nM | EC50 (Rhopr-SKR-2 [2]; [9]): 0.121 nM | EC50 (Rhopr-SKR-2 [2]; [10]): 0.314 nM
Molecule: GGSDEKFDDY(SO3H)GYMRFamide [Rhopr-SK-2, native R. prolixus sulfakinin 2, custom synthesized]
luminescence response / activation (in words) (Rhopr-SKR-1 [3]): activated by sulfated Rhopr-SK-1 and sulfated Rhopr-SK-2 in a dose-dependent manner; also recorded: partial, though potent ligand | luminescence of Rhopr-SK-2 vs Rhopr-SK-1 (Rhopr-SKR-2 [4]; 1 × 10^−6 M, one way ANOVA, Tukey, ***P < 0.001, 3 replicates): lower | luminescence response / activation (in words) (Rhopr-SKR-2 [4]): activated by sulfated Rhopr-SK-1 and sulfated Rhopr-SK-2 in a dose-dependent manner; also recorded: partial, though potent ligand | luminescence response (Rhopr-SKR-1 [1]; Rhopr-SKR-1): unable to elicit a response | luminescence response (Rhopr-SKR-2 [2]): unable to elicit a response | luminescence in empty-vector cells (HEK293/CNG cells): no luminescence

Molecule: GNDNFMRF-NH2 [extended Rhopr-FMRFamide, control for specificity, reference compound]
luminescence response / activation (in words) (Rhopr-SKR-1 [3]): little to no response | luminescence response / activation (in words) (Rhopr-SKR-2 [4]): little to no response

EC50 (Rhopr-SKR-1 [3]): 0.532 nM | EC50 (Rhopr-SKR-2 [4]): 0.144 nM | EC50 (Rhopr-SKR-1 [1]; [5]): 0.294 nM | EC50 (Rhopr-SKR-1 [1]; [6]): 0.317 nM | EC50 (Rhopr-SKR-1 [1]; [7]): 0.44 nM | EC50 (Rhopr-SKR-2 [2]; [8]): 0.214 nM | EC50 (Rhopr-SKR-2 [2]; [9]): 0.103 nM | EC50 (Rhopr-SKR-2 [2]; [10]): 0.344 nM
Molecule: pQFNEY(SO3H)GHMRFamide [Rhopr-SK-1, native R. prolixus sulfakinin 1, custom synthesized]
potency of Rhopr-SK-1 relative to Rhopr-SK-2 (Rhopr-SKR-1 [3]): one order of magnitude more potent than Rhopr-SK-2 | luminescence response / activation (in words) (Rhopr-SKR-1 [3]): activated by sulfated Rhopr-SK-1 and sulfated Rhopr-SK-2 in a dose-dependent manner; also recorded: full, and potent ligand | potency of Rhopr-SK-1 relative to Rhopr-SK-2 (Rhopr-SKR-2 [4]): similar | luminescence response / activation (in words) (Rhopr-SKR-2 [4]): activated by sulfated Rhopr-SK-1 and sulfated Rhopr-SK-2 in a dose-dependent manner; also recorded: full, and potent ligand | luminescence response (Rhopr-SKR-1 [1]; Rhopr-SKR-1): unable to elicit a response | luminescence response (Rhopr-SKR-2 [2]): unable to elicit a response | luminescence in empty-vector cells (HEK293/CNG cells): no luminescence | size of blood meal (R. prolixus): took smaller blood meals

From paper PMC6748952, “Identification, Functional Characterization, and Pharmacological Analysis of Two Sulfakinin Receptors in the Medically-Important Insect Rhodnius prolixus” (Scientific Reports, 2019)
